Measurements as given in patent US20260091026A1, “METHODS OF TREATING INFLAMMATORY DISEASES” (INTERLINE THERAPEUTICS, INC., priority 2023, published 2026).
pIC50: −log10 of the molar value.

Assays:
[1] = system: THP1-Dual cells, NF-κB pathway (SEAP); test: THP-1 Dual cell SEAP assay (L18-MDP stimulated); format: cell-based; settings: Homo sapiens, 10 ng/mL L18-MDP, 20-24 h, SEAP readout, read-out: IFNγ THP1 IC50
Experimental: THP1-Dual™ cells (InvivoGen Cat #thpd-nfis) allow simultaneous assessment of the NF-κB pathway, by monitoring the activity of secreted embryonic alkaline phosphatase (SEAP) as well as the IRF pathway, by assessing the activity of a secreted luciferase (Lucia). Cells were cultured according to manufacturers' recommendations. For the assay, cell concentration was adjusted to 7.14×10^5 cells/mL in assay media (RPMI 1640, 2 mM L-Glutamine, 25 mM HEPES, 10% fetal bovine serum (heat-inactivated for 30 min at 56° C.), Pen-Strep (100 U/mL)) and 35 μL of cell suspension (˜25,000 cells) per well were added to a flat bottom 384-well plate (white opaque). Plate was centrifuged at 300 g for 2 min, compounds were added in serial dilution series according to the plate layout (volumes ˜500 nL-0.0152 nL) and plate was incubated at 37° C. in 5% CO2 for 30 min. Using assay media, a L18-MDP stock solution, that results in a final concentration of 10 ng/mL L18-MDP in each well when adding 15 μL to each well, was prepared. 15 μL of L18-MDP stock solution was added to each well, while 15 μL of assay media was added to the negative control wells. Plates were subsequently incubated at 37° C. in 5% CO2 overnight (20-24 h).
For the SEAP assay: without disturbing the cells at the bottom of the well, 15 μL supernatant was transferred to a clear 384-well flat bottom plate and 35 μL QUANTI-Blue Solution per well was added. Following a 2 h incubation at 37° C., the optical density (OD) was measured at 620-655 nm using a microplate reader (PheraStar FS microplate reader with protocol for OD 620-655 nm).
Values of media-only wells were subtracted and % inhibition for each compound concentration relative to the DMSO/L18-MDP-treated controls was calculated. Inhibition values+/−SD were fitted by non-linear regression using Prism software (GraphPad PRISM Software) to calculate IC50 values.

RIPK2 (KD)/XIAP (BIR2) = biological target: T1, RIPK2 (KD)/XIAP (BIR2) (Homo sapiens, UniProt O43353); test: RIPK2-XIAP binding competition PPI assay (TR-FRET); settings: for Emax: 50 nM of GSK583 = -100% activity, read-out: PPI Amax; for pIC50: GST-RIPK2 / His-XIAP (BIR2)-avi, 120 min at 23° C.
T1 construct: made in house; host or cells: baculovirus-infected Sf9 cells
T1 sequence (O43353 1-310): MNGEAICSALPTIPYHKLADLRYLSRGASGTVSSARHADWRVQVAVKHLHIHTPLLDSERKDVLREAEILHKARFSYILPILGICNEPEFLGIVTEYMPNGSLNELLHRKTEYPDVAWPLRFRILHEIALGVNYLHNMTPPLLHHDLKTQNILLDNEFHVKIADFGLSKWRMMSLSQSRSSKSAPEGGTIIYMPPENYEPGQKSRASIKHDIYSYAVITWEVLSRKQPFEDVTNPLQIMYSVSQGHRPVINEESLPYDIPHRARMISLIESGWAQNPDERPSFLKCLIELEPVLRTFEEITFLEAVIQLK
Description: The ability of selected compounds of Formula (I) to inhibit the binding of an His-XIAP (BIR2)-avi fusion protein to a GST-RIPK2 fusion protein was quantified employing the TR-FRET-based competition assay as described in the following paragraphs.
Recombinant fusion protein of N-terminal Glutathione-S-Transferase (GST) and a fragment of human RIPK2 (amino acids 1-310 of accession number 043353), expressed in baculovirus infected Sf9 cells, purified via glutathione affinity chromatography, was used as GST-RIPK2 fusion protein. Recombinant fusion protein of N-terminal 6xHistidine (His), a fragment of human XIAP (amino acids 152-231 of accession number P98170), and C-terminal avi tag, expressed in baculovirus infected Sf9 cells, purified via Nickel NTA affinity chromatography, was used as the His-XIAP (BIR2)-avi fusion protein.
For the assay, a working solution of 1 nM GST-RIPK2, 25 nM His-XIAP (BIR2)-avi, 6 nM Anti-His-XL665 […] (Revvity Catalogue No. 61HISXLB), and 0.5 nM Anti-GST-Tb(Revvity Catalogue No. 61GSTTLB) in 25 mM Tris-HCl 7.5, 0.5 mM ethylene glycol-bis(2-aminoethylether)-N,N,N′,N′-tetraacetic acid (EGTA), 10 mM magnesium chloride (MgCl2), 2.5 mM dithiothreitol (DTT), 0.01% (w/v) bovine serum albumin (BSA), 0.005% (w/v) Pluronic F-127 (Sigma), 0.5 mM sodium ortho-vanadate, 5 mM-Glycerophosphate disodium salt hydrate (BGP) was prepared. 50 nL of a 100-fold concentrated solution of each test compound in DMSO was dispensed via acoustic dispensing into a white low volume 384-well microtiter plate (Perkin Elmer Catalogue No. 6008280). Subsequently, 5 μL of the assay working solution were added.
The resulting mixture was incubated 120 min at 23° C. Subsequently, the amount of complex formed by the GST-RIPK2, XIAP (BIR2)-avi, Anti-His-XL665, and Anti-GST-Tb was evaluated by measurement of the resonance energy transfer from the Tb-cryptate to the XL665. Therefore, the fluorescence emissions at 520 nm and 665 nm after excitation at 337 nm were measured in a TR-FRET reader, e.g. a Pherastar FS(BMG Labtechnologies, Offenburg, Germany) or an Envision (PerkinElmer). The ratio of the emissions at 665 nm and at 520 nm was taken as the measure of the amount of the complex. The data were normalized (assay reaction without inhibitor=0% activity, 50 nM of GSK583=−100% activity).

Work on `COc1cc2ncc(-c3cc(C(=O)NCC4CCCCC4)n(C)n3)n2cc1S(=O)(=O)C(C)(C)C` [Example 41, 3-(6-(tert-butylsulfonyl)-7-methoxyimidazo[1,2-a]pyridin-3-yl)-N-(cyclohexylmethyl)-1-methyl-1H-pyrazole-5-carboxamide] yielded a pIC50 [1] of less than 5.60, an Emax (RIPK2 (KD)/XIAP (BIR2)) of no less than 80% and a pIC50 (RIPK2 (KD)/XIAP (BIR2)) of 6.00 to 7.00.

`COc1cc2ncc(-c3cc(C(=O)N[C@H](C)c4ccccn4)n(C)n3)n2cc1S(=O)(=O)C(C)(C)C` [Example 42, (R)-3-(6-(tert-butylsulfonyl)-7-methoxyimidazo[1,2-a]pyridin-3-yl)-1-methyl-N-(1-(pyridin-2-yl)ethyl)-1H-pyrazole-5-carboxamide] showed a pIC50 [1] of 6.30 to 7.00, an Emax (RIPK2 (KD)/XIAP (BIR2)) of no less than 80% and a pIC50 (RIPK2 (KD)/XIAP (BIR2)) of 7.00 to 8.00.

For `COc1cc2ncc(-c3cc(C(=O)NCc4[nH]ncc4C)n(C)n3)n2cc1S(=O)(=O)C(C)(C)C` [Example 43, 3-(6-(tert-butylsulfonyl)-7-methoxyimidazo[1,2-a]pyridin-3-yl)-1-methyl-N-((4-methyl-1H-pyrazol-5-yl)methyl)-1H-pyrazole-5-carboxamide], the pIC50 [1] was less than 5.60, the Emax (RIPK2 (KD)/XIAP (BIR2)) was no less than 80% and the pIC50 (RIPK2 (KD)/XIAP (BIR2)) was 6.00 to 7.00.

With `COc1cc2ncc(-c3cc(C(=O)NCc4cn(C)cn4)n(C)n3)n2cc1S(=O)(=O)C(C)(C)C` [Example 44, 3-(6-(tert-butylsulfonyl)-7-methoxyimidazo[1,2-a]pyridin-3-yl)-1-methyl-N-((1-methyl-1H-imidazol-4-yl)methyl)-1H-pyrazole-5-carboxamide] the pIC50 [1] was less than 5.60, the Emax (RIPK2 (KD)/XIAP (BIR2)) was no less than 80% and the pIC50 (RIPK2 (KD)/XIAP (BIR2)) was 6.00 to 7.00.

In the case of `COc1cc2ncc(-c3cc(C(=O)NCc4cc(C)n[nH]4)n(C)n3)n2cc1S(=O)(=O)C(C)(C)C` [Example 45, 3-(6-(tert-butylsulfonyl)-7-methoxyimidazo[1,2-a]pyridin-3-yl)-1-methyl-N-((3-methyl-1H-pyrazol-5-yl)methyl)-1H-pyrazole-5-carboxamide], the pIC50 [1] was less than 5.60, the Emax (RIPK2 (KD)/XIAP (BIR2)) was no less than 80% and the pIC50 (RIPK2 (KD)/XIAP (BIR2)) was 7.00 to 8.00.

In the case of `COc1cc2ncc(-c3cc(C(=O)NCc4ccc(F)cn4)n(C)n3)n2cc1S(=O)(=O)C(C)(C)C` [Example 46, 3-(6-(tert-butylsulfonyl)-7-methoxyimidazo[1,2-a]pyridin-3-yl)-N-((5-fluoropyridin-2-yl)methyl)-1-methyl-1H-pyrazole-5-carboxamide], the pIC50 [1] was less than 5.60, the Emax (RIPK2 (KD)/XIAP (BIR2)) was no less than 80% and the pIC50 (RIPK2 (KD)/XIAP (BIR2)) was 6.00 to 7.00.

Work on `COc1cc2ncc(-c3cc(C(=O)N[C@H](C)c4ccccn4)n(C)n3)n2cc1C1(F)CCN(C)CC1` [Example 47, (R)-3-(6-(4-fluoro-1-methylpiperidin-4-yl)-7-methoxyimidazo[1,2-a]pyridin-3-yl)-1-methyl-N-(1-(pyridin-2-yl)ethyl)-1H-pyrazole-5-carboxamide] yielded a pIC50 [1] of 5.60 to 6.30, an Emax (RIPK2 (KD)/XIAP (BIR2)) of no less than 80% and a pIC50 (RIPK2 (KD)/XIAP (BIR2)) of 7.00 to 8.00.

`COc1cc2ncc(-c3cc(C(=O)N[C@H](C)c4ccc(F)cn4)n(C)n3)n2cc1S(=O)(=O)C(C)(C)C` [Example 48, (R)-3-(6-(tert-butylsulfonyl)-7-methoxyimidazo[1,2-a]pyridin-3-yl)-N-(1-(5-fluoropyridin-2-yl)ethyl)-1-methyl-1H-pyrazole-5-carboxamide] was tested, and the pIC50 [1] was 5.60 to 6.30, the Emax (RIPK2 (KD)/XIAP (BIR2)) was no less than 80% and the pIC50 (RIPK2 (KD)/XIAP (BIR2)) was 7.00 to 8.00.

`COc1cc2ncc(-c3cc(C(=O)NCc4ncccc4F)n(C)n3)n2cc1S(=O)(=O)C(C)(C)C` [Example 49, 3-(6-(tert-butylsulfonyl)-7-methoxyimidazo[1,2-a]pyridin-3-yl)-N-((3-fluoropyridin-2-yl)methyl)-1-methyl-1H-pyrazole-5-carboxamide] gave a pIC50 [1] of 5.60 to 6.30, an Emax (RIPK2 (KD)/XIAP (BIR2)) of no less than 80% and a pIC50 (RIPK2 (KD)/XIAP (BIR2)) of 7.00 to 8.00.

`COc1cc2ncc(-c3cc(C(=O)N[C@H](C)c4ncccc4F)n(C)n3)n2cc1S(=O)(=O)C(C)(C)C` [Example 50, (R)-3-(6-(tert-butylsulfonyl)-7-methoxyimidazo[1,2-a]pyridin-3-yl)-N-(1-(3-fluoropyridin-2-yl)ethyl)-1-methyl-1H-pyrazole-5-carboxamide] showed a pIC50 [1] of 6.30 to 7.00, an Emax (RIPK2 (KD)/XIAP (BIR2)) of no less than 80% and a pIC50 (RIPK2 (KD)/XIAP (BIR2)) of 7.00 to 8.00.

Work on `COc1cc2ncc(-c3cc(C(=O)N[C@@H](C)c4ncccc4F)n(C)n3)n2cc1S(=O)(=O)C(C)(C)C` [Example 51, (S)-3-(6-(tert-butylsulfonyl)-7-methoxyimidazo[1,2-a]pyridin-3-yl)-N-(1-(3-fluoropyridin-2-yl)ethyl)-1-methyl-1H-pyrazole-5-carboxamide] yielded a pIC50 [1] of less than 5.60, an Emax (RIPK2 (KD)/XIAP (BIR2)) of 55 to 80% and a pIC50 (RIPK2 (KD)/XIAP (BIR2)) of less than 6.00.

For `COc1cc2ncc(-c3cc(C(=O)NCc4cccc(F)n4)n(C)n3)n2cc1S(=O)(=O)C(C)(C)C` [Example 52, 3-(6-(tert-butylsulfonyl)-7-methoxyimidazo[1,2-a]pyridin-3-yl)-N-((6-fluoropyridin-2-yl)methyl)-1-methyl-1H-pyrazole-5-carboxamide], the pIC50 [1] was less than 5.60, the Emax (RIPK2 (KD)/XIAP (BIR2)) was no less than 80% and the pIC50 (RIPK2 (KD)/XIAP (BIR2)) was 6.00 to 7.00.

Compound `COc1cc2ncc(-c3cc(C(=O)NCc4cc(F)ccn4)n(C)n3)n2cc1S(=O)(=O)C(C)(C)C` [Example 53, 3-(6-(tert-butylsulfonyl)-7-methoxyimidazo[1,2-a]pyridin-3-yl)-N-((4-fluoropyridin-2-yl)methyl)-1-methyl-1H-pyrazole-5-carboxamide] has a pIC50 [1] of less than 5.60, an Emax (RIPK2 (KD)/XIAP (BIR2)) of no less than 80% and a pIC50 (RIPK2 (KD)/XIAP (BIR2)) of 6.00 to 7.00.

`COc1cc2ncc(-c3cc(C(=O)NCc4ncc(F)cc4F)n(C)n3)n2cc1S(=O)(=O)C(C)(C)C` [Example 54, 3-(6-(tert-butylsulfonyl)-7-methoxyimidazo[1,2-a]pyridin-3-yl)-N-((3,5-difluoropyridin-2-yl)methyl)-1-methyl-1H-pyrazole-5-carboxamide] was tested, and the pIC50 [1] was 5.60 to 6.30, the Emax (RIPK2 (KD)/XIAP (BIR2)) was no less than 80% and the pIC50 (RIPK2 (KD)/XIAP (BIR2)) was 6.00 to 7.00.

`COc1cc2ncc(-c3cc(C(=O)NC4(c5ncccn5)CC4)n(C)n3)n2cc1S(=O)(=O)C(C)(C)C` [Example 55, 3-(6-(tert-butylsulfonyl)-7-methoxyimidazo[1,2-a]pyridin-3-yl)-1-methyl-N-(1-(pyrimidin-2-yl)cyclopropyl)-1H-pyrazole-5-carboxamide] showed a pIC50 [1] of less than 5.60, an Emax (RIPK2 (KD)/XIAP (BIR2)) of 30 to 55% and a pIC50 (RIPK2 (KD)/XIAP (BIR2)) of less than 6.00.

`COc1cc2ncc(-c3cc(C(=O)N[C@H](C)c4cn(C)cn4)n(C)n3)n2cc1S(=O)(=O)C(C)(C)C` [Example 56, (R)-3-(6-(tert-butylsulfonyl)-7-methoxyimidazo[1,2-a]pyridin-3-yl)-1-methyl-N-(1-(1-methyl-1H-imidazol-4-yl)ethyl)-1H-pyrazole-5-carboxamide] showed a pIC50 [1] of less than 5.60, an Emax (RIPK2 (KD)/XIAP (BIR2)) of no less than 80% and a pIC50 (RIPK2 (KD)/XIAP (BIR2)) of 6.00 to 7.00.

`COc1cc2ncc(-c3cc(C(=O)N[C@@H](C)c4cn(C)cn4)n(C)n3)n2cc1S(=O)(=O)C(C)(C)C` [Example 57, (S)-3-(6-(tert-butylsulfonyl)-7-methoxyimidazo[1,2-a]pyridin-3-yl)-1-methyl-N-(1-(1-methyl-1H-imidazol-4-yl)ethyl)-1H-pyrazole-5-carboxamide] was tested, and the pIC50 [1] was less than 5.60, the Emax (RIPK2 (KD)/XIAP (BIR2)) was no less than 80% and the pIC50 (RIPK2 (KD)/XIAP (BIR2)) was less than 6.00.
